Activity calls are given as the source filed them. The calls are words filed in the database; no cut-off is given here.
What was measured:
HeLa [1] = assay: Induction of autophagy in human HeLa cells assessed as downregulation of mTOR expression at 2 to 8 uM incubated for 48 hrs by Western blot analysis; type: functional, cell-based; settings: dose 2-8 µM
HeLa [2] = assay: Induction of autophagy in human HeLa cells assessed as downregulation of mTOR phosphorylation at 2 to 8 uM incubated for 48 hrs by Western blot analysis; type: functional, cell-based; settings: dose 2-8 µM
HeLa [3] = assay: Induction of autophagy in human HeLa cells with siRNA-mediated RPS6 knockdown assessed as downregulation of SQSTM1/p62 expression at 4 uM incubated for 48 hrs by Western blot analysis; type: functional, cell-based
HeLa [4] = assay: Induction of apoptosis in human HeLa cells assessed as upregulation of Bax expression incubated for 48 hrs by Western blot analysis; type: functional, cell-based
HeLa [5] = assay: Induction of autophagy in human HeLa cells assessed as upregulation of LC3 expression incubated for 48 hrs by immunofluorescence assay; type: functional, cell-based
HeLa [6] = assay: Inhibition of cell invasion in human HeLa cells at 2 to 8 uM incubated for 48 hrs by crystal violet staining based transwell invasion assay; type: functional; settings: dose 2-8 µM
Cell membrane [7] = assay: Disruption of mitochondrial membrane in human HeLa cells assessed as decrease in fluorescence intensity at 2 to 8 uM incubated for 48 hrs by mito-tracker green dye based fluorescence microscopic analysis; type: cell membranes; settings: dose 2-8 µM
HeLa [8] = assay: Induction of autophagy in human HeLa cells with siRNA-mediated RPS6 knockdown assessed as upregulation of LC3 expression at 4 uM incubated for 48 hrs by Western blot analysis; type: functional, cell-based
HeLa [9] = assay: Induction of autophagy in human HeLa cells assessed as upregulation of Beclin-1 expression incubated for 48 hrs by immunofluorescence assay; type: functional, cell-based
HeLa [10] = assay: Induction of autophagy in human HeLa cells assessed as downregulation of AKT phosphorylation at 2 to 8 uM incubated for 48 hrs by Western blot analysis; type: functional, cell-based; settings: dose 2-8 µM
HeLa [11] = assay: Induction of endoplasmic reticulum (ER) stress in human HeLa cells assessed as increase in red fluorescence intensity at 2 to 8 uM incubated for 48 hrs by ER-tracker red dye based fluorescence microscopic analysis; type: functional, cell-based; settings: dose 2-8 µM
[12] = biological target: Small ribosomal subunit protein eS6 (Homo sapiens) (UniProt P62753); assay: Binding affinity to RPS6 in human HeLa cells assessed as increase in protein abundance in presence of pronase by DARTS assay; type: cell-based
Cell membrane [13] = assay: Disruption of lysosomal membrane in human HeLa cells assessed as decrease in fluorescence intensity at 2 to 8 uM incubated for 48 hrs by lyso-tracker red dye based fluorescence microscopic analysis; type: cell membranes; settings: dose 2-8 µM
HeLa [14] = assay: Induction of cell cycle arrest in human HeLa cells at 2 to 8 uM; type: functional, cell-based; settings: dose 2-8 µM
HeLa [15] = assay: Induction of autophagy in human HeLa cells assessed as upregulation of Beclin-1 expression at 2 to 8 uM incubated for 48 hrs by Western blot analysis; type: functional, cell-based; settings: dose 2-8 µM
[16] = biological target: Small ribosomal subunit protein eS6 (Homo sapiens) (UniProt P62753); assay: Binding affinity to RPS6 in human HeLa cells assessed as stabilization of protein at 100 uM at 70 degreeC by cellular thermal shift assay; type: cell-based
Cell membrane [17] = assay: Induction of mitochondrial membrane potential loss in human HeLa cells assessed as decrease in red fluorescence at 2 to 8 uM incubated for 48 hrs by JC-1 staining based flow cytometry; settings: dose 2-8 µM
HeLa [18] = assay: Induction of autophagy in human HeLa cells assessed as downregulation of AKT expression at 2 to 8 uM incubated for 48 hrs by Western blot analysis; type: functional, cell-based; settings: dose 2-8 µM
HeLa [19] = assay: Induction of autophagy in human HeLa cells assessed as downregulation of PI3K expression at 2 to 8 uM incubated for 48 hrs by Western blot analysis; type: functional, cell-based; settings: dose 2-8 µM
[20] = biological target: Small ribosomal subunit protein eS6 (Homo sapiens) (UniProt P62753); assay: Inhibition of RPS6 in human HeLa cells assessed as downregulation of RPS6 expression at 2 to 8 uM incubated for 48 hrs by Western blot analysis; type: cell-based; settings: dose 2-8 µM
HeLa [21] = assay: Antitumor activity against human HeLa cells xenografted in BALB/c mouse assessed as reduction in tumor weight at 15 to 60 mg/kg,ip once daily for 14 days; type: functional, organism-based; settings: dose 15-60 mg/kg, time 14.0 day
HeLa [22] = assay: Inhibition of colony formation in human HeLa cells at 2 to 8 uM incubated for 2 weeks by crystal violet staining based microscopic analysis; type: functional, cell-based; settings: dose 2-8 µM
HeLa [23] = assay: Induction of apoptosis in human HeLa cells assessed as upregulation of cleaved PARP expression incubated for 48 hrs by Western blot analysis; type: functional, cell-based
HeLa [24] = assay: Induction of autophagy in human HeLa cells assessed as downregulation of SQSTM1/p62 expression at 2 to 8 uM incubated for 48 hrs by Western blot analysis; type: functional, cell-based; settings: dose 2-8 µM
HeLa [25] = assay: Induction of autophagy in human HeLa cells with siRNA-mediated RPS6 knockdown assessed as upregulation of Beclin-1 expression at 4 uM incubated for 48 hrs by Western blot analysis; type: functional, cell-based
HeLa [26] = assay: Induction of autophagy in human HeLa cells assessed as increase in number of MDC-positive cells incubated for 48 hrs by MDC staining based fluorescence microscopic analysis; type: functional, cell-based
HeLa [27] = assay: Induction of autophagy in human HeLa cells assessed as upregulation of LC3 expression at 2 to 8 uM incubated for 48 hrs by Western blot analysis; type: functional, cell-based; settings: dose 2-8 µM
HeLa [28] = assay: Antitumor activity against human HeLa cells xenografted in BALB/c mouse assessed as necrotic cells in tumor at 15 to 60 mg/kg,ip once daily for 14 days; type: functional, organism-based; settings: dose 15-60 mg/kg, time 14.0 day
Cell membrane [29] = assay: Induction of mitochondrial membrane potential loss in human HeLa cells assessed as increase in green fluorescence at 2 to 8 uM incubated for 48 hrs by JC-1 staining based flow cytometry; settings: dose 2-8 µM
HeLa [30] = assay: Induction of apoptosis in human HeLa cells assessed as upregulation of p53 expression incubated for 48 hrs by Western blot analysis; type: functional, cell-based
HeLa [31] = assay: Induction of apoptosis in human HeLa cells assessed as upregulation of cleaved caspase-3 expression incubated for 48 hrs by Western blot analysis; type: functional, cell-based
HeLa [32] = assay: Induction of autophagy in human HeLa cells assessed as increase in number of autophagosomes incubated for 48 hrs by transmission electron microscopic analysis; type: functional, cell-based
[33] = biological target: Small ribosomal subunit protein eS6 (Homo sapiens) (UniProt P62753); assay: Inhibition of RPS6 in human HeLa cells assessed as downregulation of RPS6 phosphorylation at 2 to 8 uM incubated for 48 hrs by Western blot analysis; type: cell-based; settings: dose 2-8 µM
HeLa [34] = assay: Antitumor activity against human HeLa cells xenografted in BALB/c mouse assessed as reduction in tumor volume at 15 to 60 mg/kg,ip once daily for 14 days; type: functional, organism-based; settings: dose 15-60 mg/kg, time 14.0 day
HeLa [35] = assay: Induction of autophagy in human HeLa cells assessed as downregulation of PI3K phosphorylation at 2 to 8 uM incubated for 48 hrs by Western blot analysis; type: functional, cell-based; settings: dose 2-8 µM
HeLa [36] = assay: Inhibition of cell migration in human HeLa cells incubated for 48 hrs by scratch wound healing assay; type: functional, cell-based

SMILES: CCOC(=O)C[C@H]1CSC[C@]1(C(=O)OCC)n1cnc2c(Cl)nc(Cl)nc21 (racemic)
- Activity (HeLa [1]): Active
- Activity (HeLa [2]): Active
- Activity (HeLa [3]): Active
- Activity (HeLa [4]): Dose-Dependent Effect
- Activity (HeLa [5]): Active
- inhibition (HeLa [6]): Active
- Activity (Cell membrane [7]): Active
- Activity (HeLa [8]): Active
- Activity (HeLa [9]): Active
- Activity (HeLa [10]): Active
- Activity (HeLa [11]): Active
- Activity [12]: Active
- Activity (Cell membrane [13]): Active
- Activity (HeLa [14]): inactive
- Activity (HeLa [15]): Active
- Activity [16]: Active
- Activity (Cell membrane [17]): Active
- Activity (HeLa [18]): Active
- Activity (HeLa [19]): Active
- inhibition [20]: Active
- Activity (HeLa [21]): Active
- inhibition (HeLa [22]): Active
- Activity (HeLa [23]): Dose-Dependent Effect
- Activity (HeLa [24]): Active
- Activity (HeLa [25]): Active
- Activity (HeLa [26]): Dose-Dependent Effect
- Activity (HeLa [27]): Active
- Activity (HeLa [28]): Active
- Activity (Cell membrane [29]): Active
- Activity (HeLa [30]): Dose-Dependent Effect
- Activity (HeLa [31]): Dose-Dependent Effect
- Activity (HeLa [32]): Dose-Dependent Effect
- inhibition [33]: Active
- Activity (HeLa [34]): Active
- Activity (HeLa [35]): Active
- inhibition (HeLa [36]): Dose-Dependent Effect

— ChEMBL document CHEMBL5523757, “Discovery, Synthesis, and Activity Evaluation of Novel Five-Membered Sulfur-Containing Heterocyclic Nucleosides as Potential Anticancer Agents In Vitro and In Vivo” (J Med Chem, 2024)
